Data published in patent US10130615B2, “Benzomorphan analogs and the use thereof” (priority 2014, dated 2018).
Like-named read-outs stand apart in the source and are kept apart here.

Tests used:
[1] = target: T1, μ-opioid receptor (Homo sapiens, UniProt P35372); test: μ-opioid receptor GTPγS functional assay, U2OS cells; conditions: for Emax: read-out: GTPγS μ Emax
[2] = target: T1, μ-opioid receptor; test: biochemical; parameters: purchased Perkin Elmer, Shelton, Conn; host or cells: HEK-293 or CHO; conditions: HEK-293 or CHO cells; for EC50: read-out: GTPγS μ EC50; for Emax: relative to DAMGO, read-out: GTPγS μ Emax
[3] = target: T1, μ-opioid receptor; test: cell-based; parameters: purchased Perkin Elmer, Shelton, Conn; conditions: U2OS cells; for Emax: read-out: β-Arr2 μ Emax; for EC50: read-out: β-Arr2 μ EC50
[4] = target: T2, κ-opioid receptor (Homo sapiens, UniProt P41145); test: κ-opioid receptor GTPγS functional assay, U2OS cells; assay type: biochemical; parameters: expressed in transfected cells; host or cells: U-2 OS; conditions: U2OS cells; for EC50: read-out: GTPγS κ EC50
Method: (§1) Plates were incubated for 30 min at a temperature of about 25° C. with shaking.

[5] = target: T2, κ-opioid receptor; test: κ-opioid receptor [35S]GTPγS functional assay, HEK-293 or CHO cells; assay type: biochemical; parameters: expressed in transfected cells; host or cells: HEK-293; conditions: for Emax: relative to U69,593
Method: as §1

[6] = target: T2, κ-opioid receptor; test: κ-opioid receptor β-Arr2 activity response, U2OS cells; assay type: cell-based; parameters: expressed in transfected cells; host or cells: U-2 OS
[7] = target: T2, κ-opioid receptor; test: κ-opioid receptor radioligand binding assay ([3H]-U69,593); parameters: expressed in transfected cells; host or cells: HEK-293
Method: κ-opioid Receptor Binding Assay Procedures: Membranes from recombinant HEK-293 cells expressing the human κ opioid receptor (κ) (cloned in house) were prepared by lysing cells in ice cold hypotonic buffer (2.5 mM MgCl2, 50 mM HEPES, pH 7.4) (10 mL/10 cm dish) followed by homogenization with a tissue grinder/Teflon pestle. Membranes were collected by centrifugation at 30,000×g for 15 min at 4° C. and pellets were resuspended in hypotonic buffer to a final concentration of 1-3 mg/mL. Protein concentrations were determined using the BioRad protein assay reagent with bovine serum albumen as standard. Aliquots of κ receptor membranes were stored at −80° C.
Radioligand dose displacement assays used 0.4 nM [^3H]-U69,593 (GE Healthcare, Piscataway, N.J.; 40 Ci/mmole) with 15 μg membrane protein (recombinant κ opioid receptor expressed in HEK 293 cells; in-house prep) in a final volume of 200 μl binding buffer (5% DMSO, 50 mM Trizma base, pH 7.4). Non-specific binding was determined in the presence of 10 μM unlabeled naloxone or U69,593. All reactions were performed in 96-well polypropylene plates for 1 hr at a temperature of about 25° C.

[8] = HEK-293 or CHO cells, read-out: GTPγS κ EC50
[9] = U2OS cells, read-out: β-Arr2 κ EC50
[10] = HEK-293 or CHO cells, read-out: Ki (nM) Opioid Receptor κ

T1 sequence (P35372 whole entry, species assumed): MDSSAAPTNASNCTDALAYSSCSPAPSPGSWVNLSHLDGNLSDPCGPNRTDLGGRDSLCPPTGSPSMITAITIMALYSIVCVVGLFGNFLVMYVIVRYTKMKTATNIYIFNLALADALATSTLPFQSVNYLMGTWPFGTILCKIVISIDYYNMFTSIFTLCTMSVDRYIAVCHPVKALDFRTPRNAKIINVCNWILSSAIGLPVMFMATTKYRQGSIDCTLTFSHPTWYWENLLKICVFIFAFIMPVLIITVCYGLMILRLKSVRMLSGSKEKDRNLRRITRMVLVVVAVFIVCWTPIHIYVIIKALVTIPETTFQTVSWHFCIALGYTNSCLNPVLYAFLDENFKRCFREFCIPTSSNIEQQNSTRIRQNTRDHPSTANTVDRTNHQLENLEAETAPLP
T2 sequence (P41145 whole entry): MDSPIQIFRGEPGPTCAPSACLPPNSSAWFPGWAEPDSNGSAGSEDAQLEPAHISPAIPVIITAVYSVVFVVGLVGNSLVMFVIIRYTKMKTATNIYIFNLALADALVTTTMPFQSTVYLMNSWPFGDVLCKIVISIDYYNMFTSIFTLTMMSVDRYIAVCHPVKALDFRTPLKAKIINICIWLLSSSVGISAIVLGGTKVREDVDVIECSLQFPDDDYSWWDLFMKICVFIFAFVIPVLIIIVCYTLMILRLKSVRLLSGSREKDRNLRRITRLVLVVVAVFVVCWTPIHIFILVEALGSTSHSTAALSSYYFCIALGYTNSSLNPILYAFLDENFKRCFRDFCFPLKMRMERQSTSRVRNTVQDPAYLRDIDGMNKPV

SMILES | EC50 [1] [µM] | Emax [1] [%] | EC50 [2] [µM] | Emax [2] [%] | Emax [3] [%] | Emax [4] [%] | EC50 [4] [µM] | EC50 [5, 8] [µM] | Emax ([5]; HEK-293 or CHO cells) [%] | Emax ([6]; U2OS cells) [%] | EC50 [6, 9] [µM] | Ki [7, 10] [nM] | EC50 [3] [µM] | Ki [7] [nM] | EC50 [5] [µM] | EC50 [6] [µM]
CCOC(=O)c1ccc(NC(=O)NCC[C@]23CCN(CC4CC4)[C@H](Cc4ccc(OC)cc42)[C@@H]3C)cc1 [Compound 1, Ethyl 4-(3-(2-((2R,6R,11R)-3-(cyclopropylmethyl)-8-methoxy-11-methyl-2,3,4,5-tetrahydro-2,6-methanobenzo[d]azocin-6(1H)-yl)ethyl)ureido)benzoate] | 0.164 ± 0.0316 | 62 ± 2.08 | 0.00421 ± 0.00067 | 27.8 ± 0.85 | 25.5 | 103 ± 3.53 | 0.00579 ± 0.00056 | 0.0334 ± 0.00226 | 78.3 ± 0.91 | 44.2 ± 4.05 | 0.0638 ± 0.00723 | – | – | – | – | –
C[C@H]1[C@H]2Cc3ccc(O)cc3[C@]1(CCNC(=O)Nc1ccc(C(=O)O)cc1)CCN2CC1CC1 [Compound 2, 4-(3-(2-((2R,6R,11R)-3-(cyclopropyl-methyl)-8-hydroxy-11-methyl-2,3,4,5-tetrahydro-2,6-methanobenzo[d]azocin-6(1H)-yl)ethyl)ureido)benzoic acid] | 0.00189 ± 0.00018 | 72.5 ± 1.5 | – | – | -1.5 | 106 ± 2.52 | 0.00411 ± 0.00025 | – | – | 28.7 ± 4.67 | 0.0084 ± 0.00186 | 7.08 ± 0.71 | – | – | – | –
COc1ccc2c(c1)[C@]1(CCNC(=O)[C@H](C)NC(C)=O)CCN(CC3CC3)[C@H](C2)[C@@H]1C [Compound 4, (S)-2-acetamido-N-(2-((2R,6R,11R)-3-(cyclopropylmethyl)-8-methoxy-11-methyl-2,3,4,5-tetrahydro-2,6-methanobenzo[d]azocin-6(1H)-yl)ethyl)propanamide] | 0.522 ± 0.0601 | 80.2 ± 3.3 | – | 0 | 1.3 ± 0.77 | 97 ± 5.29 | 0.0382 ± 0.00489 | – | – | 59.3 ± 4.06 | 0.403 ± 0.0599 | – | – | – | – | –
COc1ccc2c(c1)[C@]1(CCNC(=O)[C@@H]3CCCN3C(C)=O)CCN(CC3CC3)[C@H](C2)[C@@H]1C [Compound 5, (S)-1-acetyl-N-(2-((2R,6R,11R)-3-(cyclopropylmethyl)-8-methoxy-11-methyl-2,3,4,5-tetrahydro-2,6-methanobenzo[d]azocin-6(1H)-yl)ethyl)pyrrolidine-2-carboxamide] | 0.629 ± 0.0168 | 75.2 ± 1.55 | 0.468 ± 0.122 | 16.3 ± 1.44 | -1 | 100 ± 4.58 | 0.0633 ± 0.0102 | – | – | 58.7 ± 5.93 | 0.407 ± 0.0655 | – | – | – | – | –
C[C@H]1[C@H]2Cc3ccc(O)cc3[C@]1(CCN1CCS(=O)(=O)CC1)CCN2C [Compound 10, 4-(2-((2R,6R,11R)-8-hydroxy-3,11-dimethyl-2,3,4,5-tetrahydro-2,6-methanobenzo[d]azocin-6(1H)-yl)-ethyl)thiomorpholine 1,1-dioxide] | – | – | 0.133 ± 0.0161 | 51 ± 1.08 | 2.83 ± 0.27 | – | – | 0.516 ± 0.0339 | 26.6 ± 1.52 | 17.2 ± 0.97 | 4.66 ± 1.72 | 77 ± 2.02 | 0.129 ± 0.0344 | – | – | –
C[C@H]1[C@H]2Cc3ccc(O)cc3[C@]1(CCNC(=O)[C@@H]1CCCCN1)CCN2CC1CC1 [Compound 11, (S)-N-(2-((2R,6R,11R)-3-(cyclopropyl-methyl)-8-hydroxy-11-methyl-2,3,4,5-tetrahydro-2,6-methanobenzo[d]azocin-6(1H)-yl)ethyl)piperidine-2-carboxamide] | – | – | 0.0183 ± 0.00558 | 23 ± 1.38 | -1.5 | – | – | 0.00104 ± 5.9e-05 | 84 ± 3.63 | – | – | 0.17 ± 0.044 | – | – | – | –
C[C@H]1[C@H]2Cc3ccc(O)cc3[C@]1(CCO)CCN2C [Compound 12, (2R,6S,11R)-6-(2-hydroxyethyl)-3,11-dimethyl-1,2,3,4,5,6-hexahydro-2,6-methanobenzo[d]azocin-8-ol] | – | – | 0.237 ± 0.0362 | 58.2 ± 1.65 | 8.83 ± 0.44 | – | – | – | 37.1 ± 1.43 | 12.7 ± 1.57 | – | – | 0.386 ± 0.0895 | 22.4 ± 3.57 | 0.344 ± 0.0326 | 5.52 ± 4.65
C[C@H]1[C@H]2Cc3ccc(O)cc3[C@]1(CCNS(C)(=O)=O)CCN2C [Compound 13, N-(2-((2R,6S,11R)-8-hydroxy-3,11-dimethyl-2,3,4,5-tetrahydro-2,6-methanobenzo[d]azocin-6(1H)-yl)ethyl)methanesulfonamide] | – | – | 0.285 ± 0.072 | 25 ± 1.53 | -1 | – | – | 0.166 ± 0.00148 | 30.8 ± 0.19 | – | – | 20.5 ± 3.21 | – | – | – | –
COc1ccc2c(c1)[C@@]1(CCO)CCN(CC3CC3)[C@@H](C2)[C@H]1C [Compound 46, 2-((2S,6R,11S)-3-(cyclopropylmethyl)-8-methoxy-11-methyl-2,3,4,5-tetrahydro-2,6-methanobenzo[d]azocin-6(1H)-yl)ethan-1-ol] | – | – | – | – | – | – | – | – | – | – | – | – | – | 3580 ± 457 | – | –
COc1ccc2c(c1)[C@]1(CCOCc3ccccc3)CCN(C)[C@H](C2)[C@@H]1C [Compound 48, (2R,6S,11R)-6-(2-(benzyloxy)ethyl)-8-methoxy-3,11-dimethyl-1,2,3,4,5,6-hexahydro-2,6-methanobenzo[d]azocine] | 0.313 ± 0.028 | 97 ± 2.08 | 2.24 ± 0.19 | 53.1 ± 4.36 | 27.7 ± 0.88 | 108 ± 4.51 | 0.104 ± 0.0158 | – | – | 64.3 ± 9.39 | 16.3 ± 7.6 | – | 4.38 ± 0.627 | – | – | –
C[C@H]1[C@H]2Cc3ccc(O)cc3[C@]1(CCOc1cncc(C(=O)O)c1)CCN2C [Compound 52, 5-(2-((2R,6S,11R)-8-hydroxy-3,11-dimethyl-2,3,4,5-tetrahydro-2,6-methanobenzo[d]azocin-6(1H)-yl)ethoxy)nicotinic acid] | 0.0681 ± 0.00657 | 89 ± 4 | 0.32 ± 0.0469 | 35 ± 1.53 | 6.77 ± 1.13 | 99 ± 1.73 | 0.434 ± 0.0391 | – | – | 1 | – | – | 0.403 ± 0.11 | – | – | –
C[C@H]1[C@H]2Cc3ccc(O)cc3[C@]1(CCN1CCC(N(C3CC3)S(=O)(=O)c3ccc(Cl)cc3)CC1)CCN2C [Compound 58, 4-chloro-N-cyclopropyl-N-(1-(2-((2R,6R,11R)-8-hydroxy-3,11-dimethyl-2,3,4,5-tetrahydro-2,6-methanobenzo-[d]azocin-6(1H)-yl)ethyl)piperidin-4-yl)-benzenesulfonamide] | 0.0203 ± 0.00182 | 98 ± 2 | 0.179 ± 0.0127 | 53.3 ± 2.96 | 77.7 ± 7.06 | 60 ± 1 | 0.011 ± 0.00159 | – | – | 80.3 ± 7.75 | 8.9 ± 1.62 | – | 2.14 ± 0.586 | – | – | –
C[C@H]1[C@H]2Cc3ccc(O)cc3[C@]1(CCNCCc1ccc(S(N)(=O)=O)cc1)CCN2C [Compound 59, 4-(2-((2-((2R,6R,11R)-8-hydroxy-3,11-dimethyl-2,3,4,5-tetrahydro-2,6-methanobenzo[d]azocin-6(1H)-yl)ethyl)amino)ethyl)benzenesulfonamide] | 0.0856 ± 0.00967 | 74 ± 3.51 | 0.369 ± 0.0502 | 38 ± 4.18 | -1 | 112 ± 7.54 | 0.0612 ± 0.01 | – | – | 1 | – | – | – | – | – | –
C[C@H]1[C@H]2Cc3ccc(O)cc3[C@]1(CC(=O)N1CCC(N(C3CC3)S(=O)(=O)c3ccc(Cl)cc3)CC1)CCN2C [Compound 61, 4-chloro-N-cyclopropyl-N-(1-(2-((2R,6S,11R)-8-hydroxy-3,11-dimethyl-2,3,4,5-tetrahydro-2,6-methano-benzo[d]azocin-6(1H)-yl)acetyl)-piperidin-4-yl)benzenesulfonamide] | 0.146 ± 0.0248 | 78.7 ± 0.33 | 0.283 ± 0.0288 | 35.7 ± 1.2 | 7.67 ± 0.73 | 42.7 ± 2.03 | 0.0454 ± 0.00669 | – | – | 14.7 ± 1.33 | 7.29 ± 2.06 | – | 0.649 ± 0.18 | – | – | –
